Data reported in patent US12295959B2 (priority 2021, dated 2025).

Tests used:
rat cortical neurons = test: Neurite outgrowth assay; format: cell-based; design: key: A: Statistically significant mean increase as a percent of DMSO control at 10 μM or less.; B: No statistically significant mean increase as a percent of DMSO control at 10 μM or less; settings: 72 h, 10 μM or less, vs DMSO control
Text: Neurite Outgrowth Assay. Changes in the pattern of neurite outgrowth have been implicated in psychiatric and neurodegenerative disorders as well as traumatic injuries. The discovery of new compounds that can positively affect neuritogenesis are important for developing new therapeutics for neurological diseases. Measurement of neurite outgrowth of rat cortical neurons using an automated image-based assay was used to determine the neuroplastic effects of the compounds of the present invention. The neurite outgrowth assay was performed at Neurofit SAS (France) as described below.
Pregnant Wistar rats (Janvier; France) were used for the study. They were delivered 6 days before their use. Upon arrival at Neurofit animal facility, they were housed one per cage and maintained in a room with controlled temperature (21-22° C.) and a reversed light-dark cycle (12 h/12 h; lights on: 17:30-05:30; lights off: 05:30-17:30) with food and water available ad libitum.
Female Wistar rats of 17 days gestation were killed by cervical dislocation and the fetuses were removed from the uterus. Their brains were placed in ice-cold medium of Leibovitz (L15, Gibco, Fisher bioblock, France). Cortices were dissected and meninges were carefully removed. The cortical neurons were dissociated by trypsinization for 30 min at 37° C. (trypsin-EDTA, Gibco) in presence of 0.1 mg/ml DNAse I (Roche, France). The reaction was stopped by addition of Dulbecco's Modified Eagle Medium (DMEM; Gibco) with 10% of fetal bovine serum (FBS; Gibco). The suspension was triturated with a 10-ml pipette and using a needle syringe 21G and centrifuged at 350×g for 10 min at room temperature. The pellet of dissociated cells was resuspended in a medium consisting of Neurobasal (Gibco) supplemented with 2% B27 supplement (Gibco), 0.5 mM L-Glutamine (Gibco), an antibiotic-antimicotic mixture. Viable cells were counted in a Neubauer cytometer using the trypan blue exclusion test (Sigma). Cells were seeded at a density of 10000 cells per well in 96-well plate (Costar) precoated with poly-L-lysine. Test compound at different concentrations were added to the cultures. Donepezil (positive control) was tested at 250 nM.
After 72 h (3 days) of plating, cultures were fixed with paraformaldehyde in PBS (4%, Sigma) for 30 min at 4° C. Then, cells were successively permeabilized with 0.1% Triton X100 for 30 min, saturated with PBS containing 3% of BSA and were incubated 1 h with anti-beta III tubulin antibody (Sigma) at 1/10 000 in PBS containing 0.5% of BSA. Cells were washed three times with PBS containing 0.5% of BSA, and they were incubated 1 h with goat anti-mouse antibody coupled with AF488 (Invitrogen A 11001) diluted at 1/1000 in PBS containing 0.5% of BSA. Finally, nuclei were staining with DAPI 1 mg/ml at 1/1000 in PBS containing 0.5% of BSA. After rinsing with PBS, the plate was filmed and neurite networks were examined and analyzed using High-Content Screening (CellInsight, Thermo Scientific). The average number of neurites per neuron and the average total length of neurites per neuron were the main parameters analyzed. Analysis of data was performed using analysis of variance (ANOVA). The Fisher's Protected Least Significant Difference test was used for multiple comparisons. A p value≤0.05 was considered significant. The software used is StatView 5.0 from SAS Institut.

5-HT2A [1] = biological target: T1, 5-HT2A (Homo sapiens, UniProt P28223); test: Serotonin 5-HT2A in vitro cellular IPOne agonism assay (HTRF); format: cell-based; design: host or cells: CHO-K1; settings: CHO-K1 cells, agonist mode
Description: (§1) Serotonin 5-HT2A In Vitro Cellular IPOne Agonism Assay. The 5-HT2A IPOne HTRF assay was performed at Epics Therapeutics S.A. (Belgium, FAST-0505I) using conventional methods. Briefly, CHO-K1 cells expressing human recombinant 5-HT2A receptor grown to mid-log phase in culture media without antibiotics were detached with PBS-EDTA, centrifuged, and resuspended in medium without antibiotics buffer. 20,000 cells were distributed in a 96 well plate and incubated overnight at 37° C. with 5% CO2.
For agonist testing, the medium was removed and 20 μl of assay buffer plus 20 μl of test compound or reference agonist are added in each well. The plate was incubated for 60 min. at 37° C. with 5% CO2.
(§2) After addition of the lysis buffer containing IP1-d2 and anti-IP1 cryptate detection reagents, plates were incubated 1-hour at room temperature, and fluorescence ratios were measured according to the manufacturer specification, with the HTRF kit.

5-HT2A [2] = biological target: T1, 5-HT2A; test: Serotonin 5-HT2A in vitro cellular IPOne antagonism assay; format: cell-based; design: host or cells: CHO-K1; settings: CHO-K1 cells, antagonist mode, reference agonist a-Me-5HT
Description: as §1, with “Serotonin 5-HT2A and 5-HT2C In Vitro” for “Serotonin 5-HT2A In Vitro”, “Cellular IPOne Antagonism Assay. The” for “Cellular IPOne Agonism Assay. The”, “(Belgium, FAST-0505I) in antagonism mode using conventional” for “(Belgium, FAST-0505I) using conventional”
For antagonist testing, a reference agonist a-Me-5HT was added and fluorescence signal monitored for several minutes, followed by addition of 20 μl of assay buffer plus 20 μl of test compound or reference antagonist ketanserin, in each well. The plate was incubated for 60 min. at 37° C. with 5% CO2.
as §2

5-HT2A [3] = biological target: T1, 5-HT2A; test: Serotonin 5-HT2A in vitro radioligand binding competition assay ([3H]-DOI); design: purchased Epics Therapeutics S.A. (Belgium) FAST-0505B; host or cells: membrane extracts; settings: [3H]-DOI competition, membrane extracts
Description: Serotonin 5-HT2A In Vitro Radioligand Binding Competition Assay. The 5-HT2A radioligand binding competition assay was performed at Epics Therapeutics S.A. (Belgium, FAST-0505B) using conventional methods. Briefly, competition binding was performed in duplicate in the wells of a 96 well plate (Master Block, Greiner, 786201) containing binding buffer (optimized for each receptor), membrane extracts (amount of protein/well optimized for each receptor), radiotracer [^3H]-DOI (final concentration optimized for each receptor) and test compound. Nonspecific binding was determined by co-incubation with 200-fold excess of cold competitor. The samples were incubated in a final volume of 0.1 ml at a temperature and for a duration optimized for each receptor and then filtered over filter plates. Filters were washed six times with 0.5 ml of ice-cold washing buffer (optimized for each receptor) and 50 μl of Microscint 20 (Packard) was added in each well. The plates were incubated 15 min on an orbital shaker and then counted with a TopCount™ for 1 min/well.

T1 sequence (P28223 whole entry): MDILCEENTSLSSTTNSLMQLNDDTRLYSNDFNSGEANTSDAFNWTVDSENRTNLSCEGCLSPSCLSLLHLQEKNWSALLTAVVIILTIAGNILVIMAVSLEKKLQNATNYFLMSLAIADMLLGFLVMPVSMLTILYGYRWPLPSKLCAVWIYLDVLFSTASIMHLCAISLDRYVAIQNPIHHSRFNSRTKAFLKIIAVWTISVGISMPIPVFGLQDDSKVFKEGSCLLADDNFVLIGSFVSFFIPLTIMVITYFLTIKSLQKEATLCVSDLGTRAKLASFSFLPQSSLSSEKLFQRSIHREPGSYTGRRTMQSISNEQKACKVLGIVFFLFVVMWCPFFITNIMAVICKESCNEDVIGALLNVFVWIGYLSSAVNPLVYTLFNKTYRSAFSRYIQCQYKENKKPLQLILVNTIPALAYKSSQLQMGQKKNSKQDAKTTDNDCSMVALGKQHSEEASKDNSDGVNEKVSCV

CN1CCc2c(n(C)c3cc(OCc4ccccc4)ccc23)CC1 [Compound 6, 8-(benzyloxy)-3,6-dimethyl-1,2,3,4,5,6-hexahydroazepino[4,5-b]indole]
Increase in Neurite Branching (rat cortical neurons): B
Increase in Neurite Length (rat cortical neurons): B
Increase in Neurite Number (rat cortical neurons): B
EC50 (5-HT2A [1]): > 10 µM
IC50 (5-HT2A [2]): 0.101 to 1 µM
IC50 (5-HT2A [3]): 0.101 to 1 µM

CN1CCc2c(n(C)c3cc(OCc4ccc(F)cc4)ccc23)CC1 [Compound 10, 8-((4-fluorobenzyl)oxy)-3,6-dimethyl-1,2,3,4,5,6-hexahydroazepino[4,5-b]indole]
Increase in Neurite Length (rat cortical neurons): B
EC50 (5-HT2A [1]): > 10 µM
IC50 (5-HT2A [2]): 0.01 to 0.1 µM
IC50 (5-HT2A [3]): 0.101 to 1 µM

CN1CCc2[nH]c3cc(Oc4ccc(F)cc4)ccc3c2CC1 [Compound 16, 8-(4-fluorophenoxy)-3-methyl-1,2,3,4,5,6-hexahydroazepino[4,5-b]indole]
Increase in Neurite Branching (rat cortical neurons): A
Increase in Neurite Length (rat cortical neurons): A
Increase in Neurite Number (rat cortical neurons): B
EC50 (5-HT2A [1]): > 10 µM
IC50 (5-HT2A [2]): 0.101 to 1 µM
IC50 (5-HT2A [3]): 0.101 to 1 µM

c1ccc(COc2cccc3c4c([nH]c23)CCNCC4)cc1 [Compound 27, 7-(benzyloxy)-1,2,3,4,5,6-hexahydroazepino[4,5-b]indole]
Increase in Neurite Length (rat cortical neurons): A
EC50 (5-HT2A [1]): 0.101 to 1 µM
IC50 (5-HT2A [3]): 0.101 to 1 µM

CN1CCc2[nH]c3c(OCc4ccccc4)cccc3c2CC1 [Compound 28, 7-(benzyloxy)-3-methyl-1,2,3,4,5,6-hexahydroazepino[4,5-b]indole]
Increase in Neurite Branching (rat cortical neurons): A
Increase in Neurite Length (rat cortical neurons): A
Increase in Neurite Number (rat cortical neurons): A
EC50 (5-HT2A [1]): > 10 µM
IC50 (5-HT2A [2]): 0.01 to 0.1 µM
IC50 (5-HT2A [3]): 0.01 to 0.1 µM

CN1CCc2[nH]c3cc(OCc4ccc(F)cc4)ccc3c2CC1 [Compound 8, 8-((4-fluorobenzyl)oxy)-3-methyl-1,2,3,4,5,6-hexahydroazepino[4,5-b]indole]
Increase in Neurite Branching (rat cortical neurons): A
Increase in Neurite Length (rat cortical neurons): A
Increase in Neurite Number (rat cortical neurons): A
EC50 (5-HT2A [1]): > 10 µM
IC50 (5-HT2A [2]): 0.01 to 0.1 µM
IC50 (5-HT2A [3]): 0.101 to 1 µM

Fc1ccc(Oc2cccc3[nH]c4c(c23)CCNCC4)cc1 [Compound 21, 10-(4-fluorophenoxy)-1,2,3,4,5,6-hexahydroazepino[4,5-b]indole]
Increase in Neurite Branching (rat cortical neurons): B
Increase in Neurite Length (rat cortical neurons): B
Increase in Neurite Number (rat cortical neurons): B
EC50 (5-HT2A [1]): 0.01 to 0.1 µM
IC50 (5-HT2A [3]): 0.01 to 0.1 µM

CN1CCc2[nH]c3cc(OCc4ccccc4)ccc3c2CC1 [Compound 1, 8-(benzyloxy)-3-methyl-1,2,3,4,5,6-hexahydroazepino[4,5-b]indole]
Increase in Neurite Branching (rat cortical neurons): B
Increase in Neurite Length (rat cortical neurons): A
Increase in Neurite Number (rat cortical neurons): A
EC50 (5-HT2A [1]): > 10 µM
IC50 (5-HT2A [2]): 0.101 to 1 µM
IC50 (5-HT2A [3]): 0.101 to 1 µM

c1ccc(Oc2ccc3c4c([nH]c3c2)CCNCC4)cc1 [Compound 11, 8-phenoxy-1,2,3,4,5,6-hexahydroazepino[4,5-b]indole]
EC50 (5-HT2A [1]): 1 to 10 µM
IC50 (5-HT2A [2]): 0.101 to 1 µM
IC50 (5-HT2A [3]): 1 to 10 µM

Cn1c2c(c3ccc(OCc4ccc(F)cc4)cc31)CCNCC2 [Compound 9, 8-((4-fluorobenzyl)oxy)-6-methyl-1,2,3,4,5,6-hexahydroazepino[4,5-b]indole]
Increase in Neurite Branching (rat cortical neurons): B
Increase in Neurite Length (rat cortical neurons): B
Increase in Neurite Number (rat cortical neurons): B
EC50 (5-HT2A [1]): > 10 µM
IC50 (5-HT2A [2]): 0.101 to 1 µM
IC50 (5-HT2A [3]): 0.101 to 1 µM

CN1CCc2[nH]c3cccc(OCc4ccccc4)c3c2CC1 [Compound 2, 10-(benzyloxy)-3-methyl-1,2,3,4,5,6-hexahydroazepino[4,5-b]indole]
Increase in Neurite Branching (rat cortical neurons): B
Increase in Neurite Length (rat cortical neurons): A
Increase in Neurite Number (rat cortical neurons): A
EC50 (5-HT2A [1]): > 10 µM
IC50 (5-HT2A [2]): 0.01 to 0.1 µM
IC50 (5-HT2A [3]): < 0.01 µM

c1ccc(COc2cccc3[nH]c4c(c23)CCNCC4)cc1 [Compound 4, 10-(benzyloxy)-1,2,3,4,5,6-hexahydroazepino[4,5-b]indole]
Increase in Neurite Length (rat cortical neurons): B
Increase in Neurite Number (rat cortical neurons): B
EC50 (5-HT2A [1]): < 0.01 µM
IC50 (5-HT2A [3]): 0.01 to 0.1 µM

c1ccc(COc2ccc3c4c([nH]c3c2)CCNCC4)cc1 [Compound 3, 8-(benzyloxy)-1,2,3,4,5,6-hexahydroazepino[4,5-b]indole]
Increase in Neurite Branching (rat cortical neurons): A
Increase in Neurite Length (rat cortical neurons): A
Increase in Neurite Number (rat cortical neurons): A
EC50 (5-HT2A [1]): 0.101 to 1 µM
IC50 (5-HT2A [3]): 0.101 to 1 µM

c1ccc(Oc2cccc3[nH]c4c(c23)CCNCC4)cc1 [Compound 20, 10-phenoxy-1,2,3,4,5,6-hexahydroazepino[4,5-b]indole]
Increase in Neurite Length (rat cortical neurons): B
EC50 (5-HT2A [1]): 0.01 to 0.1 µM
IC50 (5-HT2A [3]): 0.01 to 0.1 µM

Cn1c2c(c3ccc(Oc4ccccc4)cc31)CCNCC2 [Compound 13, 6-methyl-8-phenoxy-1,2,3,4,5,6-hexahydroazepino[4,5-b]indole]
EC50 (5-HT2A [1]): 0.101 to 1 µM
IC50 (5-HT2A [3]): 1 to 10 µM

Cn1c2c(c3c(Oc4ccc(F)cc4)cccc31)CCNCC2 [Compound 23, 10-(4-fluorophenoxy)-6-methyl-1,2,3,4,5,6-hexahydroazepino[4,5-b]indole]
EC50 (5-HT2A [1]): 0.101 to 1 µM
IC50 (5-HT2A [3]): 0.01 to 0.1 µM

Fc1ccc(Oc2ccc3c4c([nH]c3c2)CCNCC4)cc1 [Compound 15, 8-(4-fluorophenoxy)-1,2,3,4,5,6-hexahydroazepino[4,5-b]indole]
Increase in Neurite Branching (rat cortical neurons): A
Increase in Neurite Length (rat cortical neurons): A
Increase in Neurite Number (rat cortical neurons): A
EC50 (5-HT2A [1]): 0.101 to 1 µM
IC50 (5-HT2A [3]): 0.101 to 1 µM

Cn1c2c(c3ccc(Oc4ccc(F)cc4)cc31)CCNCC2 [Compound 17, 8-(4-fluorophenoxy)-6-methyl-1,2,3,4,5,6-hexahydroazepino[4,5-b]indole]
EC50 (5-HT2A [1]): 0.101 to 1 µM
IC50 (5-HT2A [3]): 0.101 to 1 µM
